This assay concerns the target T1, Trypsin from a bovine pancreas (Bos taurus, UniProt P00760).
T1 construct: Trypsin from a bovine pancreas; purchased Sigma-Aldrich T8802; host or cells: bovine pancreas (tissue-derived)
T1 sequence (P00760 24-246): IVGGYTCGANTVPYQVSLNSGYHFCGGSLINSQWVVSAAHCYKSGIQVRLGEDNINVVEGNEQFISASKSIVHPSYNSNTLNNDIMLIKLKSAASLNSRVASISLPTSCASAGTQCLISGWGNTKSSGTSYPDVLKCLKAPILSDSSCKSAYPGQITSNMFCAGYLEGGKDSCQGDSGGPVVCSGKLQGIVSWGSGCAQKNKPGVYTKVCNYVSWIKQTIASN
Nature of the assay: Trypsin assay (fluorogenic substrate Z-Phe-Arg-7-amido-4-methylcoumarin, kinetic slope vs vehicle control). The format is biochemical. The settings on record: single-well values, n=8 wells. As for the experimental part: Trypsin from a bovine pancreas (available from Sigma-Aldrich, USA, Catalog #T8802) is diluted in phosphate buffered saline (PBS) to make a stock of about 0.001% trypsin. In a 96 well white plate with clear bottom (e.g., Corning Costar #3904 available from _VWR International, LLC, Pennsylvania, USA), about 90 uL of 0.001% trypsin stock is mixed with about 10 uL of a test compound (e.g., N-undecylenoyl-L-phenylalanine) or vehicle control, such as dimethyl sulfoxide (DMSO) or water. Typically, there are 8 control wells per plate. The assay is initiated by the addition of 100 uL of the substrate, Z-Phe-Arg-7-amido-4-methylcoumarin (e.g., Calbiochem Catalog #03-32-1501-10 mM in PBS available from Life Technologies, California, USA) and the well plate is monitored in a fluorescent plate reader (e.g., a Gemini plate reader) with an excitation wavelength of 360 nm and an emission wavelength of 460 nm. The reaction progress is measured in a kinetic mode for 5 minutes. SoftMaxPro Data Analysis Software (available from Molecular Devices, Inc.) is used to fit a line to the data points for each well, and the slopes of the lines are then calculated. The slopes of each test compound well are compared to the average of the slopes of the vehicle control wells of a plate to determine the percentage of trypsin activity using equation (1) below. As the trypsin hydrolyzes the substrate, the fluorescence of the 7-amido-coumarin group increases, causing a growth in the signal which reflects the level of trypsin activity. An inhibitor attenuates the fluorescence growth resulting in a smaller slope. Percent(%)trypsin activity=[slope of test well]/[average slope of vehicle control wells] (1)
Using generally the method outlined above, the percentage of trypsin activity was measured for 1:900 dilution of 1% N-undecylenoyl-L-phenylalanine, 3% myo-inositol, 5% niacinamide, and 5% hexyldecanol using a sample size of n=8 wells for each compound. […]

Values joined by “and” are separate entries in the source; they are usually repeats but may differ in a detail not shown here. Equal values may be shown once.

Here are results for four compounds from patent US8715628B1, “Cosmetic compositions and methods for inhibiting or reducing trypsin activity” (The Procter & Gamble Company, priority 2011, dated 2014).

Consider `CCCCCCCCC(CO)CCCCCC` (stereo not shown) [Hexyldecanol, 2-Hexyldecan-1-ol], for which the “% Activity (percentage of trypsin activity)” value (1:900 dilution of 5% hexyldecanol) was 87.1% and 90.7% and 85.7% and 100.0% and 112.4% and 112.0% and 88.7% and 95.4%.

Regarding `O[C@H]1[C@H](O)[C@@H](O)[C@H](O)[C@@H](O)[C@H]1O` [Myo-Inositol, myo-inositol], the “% Activity (percentage of trypsin activity)” value (1:900 dilution of 3% myo-inositol) is 93.8% and 112.4% and 101.4% and 108.9% and 108.0% and 121.4% and 95.6% and 109.2%.

Turning to `C=CCCCCCCCCC(=O)N[C@@H](Cc1ccccc1)C(=O)O` [N-undecylenoyl-L-phenylalanine], the “% Activity (percentage of trypsin activity)” value (1:900 dilution of 1% N-undecylenoyl-L-phenylalanine, >100% up-regulation, <100% inhibition) is 91.4% and 104.9% and 97.2% and 100.5% and 121.8% and 116.3% and 79.9% and 99.8%.

Regarding `NC(=O)c1cccnc1` [Niacinamide, niacinamide], under “1:900 dilution of 5% niacinamide”, the “% Activity (percentage of trypsin activity)” value was 106.0% and 91.8% and 91.3% and 107.7% and 111.1% and 109.1% and 93.9% and 88.7%.
